# US5854252A, “Dihalotriazolopyrimidine derivatives” (Shell Internationale Research Maatschappij B.V., priority 1993, dated 1998)
# Columns and labels:
# Gaeumannomyces graminis = assay: MIC by serial dilution, Example 55, Gaeumannomyces graminis; assay type: cell-based; settings: microtitre plates, 20° C., 6-8 days
# Procedure: (§1) The MIC (Minimum Inhibition Concentration)-values were determined by serial dilution tests using 48-well microtitre plates. The dilution of the test compounds in the nutrient solution and the distribution to the wells were carried out by a TECAN RSP 5000 robotic sample processor.
# (§2) For preparation of the nutrient solution, V8 juice (Trade Mark) was neutralised with calcium carbonate and centrifuged. The supernatant was diluted with distilled water (1:5) to the final concentration.
# (§3) The fungi (Alternaria solani, Botrytis cinerea, Pseudocercosporella herpotrichoides, Micronectriella nivalis, Gaeumannomyces graminis) were added into the wells as a droplet of spore suspension. The microtitre plates were then incubated at 20° C. for 6-8 days. The MIC-value, which was defined to be the lowest concentration in the dilution series without mycelial growth, was determined by visual inspection of the plates.
# [1] = tested on: Pseudocercosporella herpotrichoides; assay: Activity against wheat eyespot in-vitro (PHI), Example 53(j); assay type: cell-based; settings: 50 ppm, 12 days at 20° C.
# Procedure: This test measures the in vitro activity of compounds against the fungus causing wheat eyespot. The test compound is dissolved or suspended in acetone and is added into 4 ml aliquots of half strength Potato Dextrose Broth dispensed in 25-compartment petri dishes to give a final concentration of 50 ppm compound and 2.5% acetone. Each compartment is inoculated with a 6 mm diameter plug of agar/mycelium taken from a 14 day old culture of P. herpotrichoides. Plates are incubated at 20° C. for 12 days until the assessment of mycelial growth. The extent of disease control in all the above tests is expressed as a rating compared with either an untreated control or a diluent-sprayed-control, according to the criteria: […]
# Micronectriella nivalis = assay: MIC by serial dilution, Example 55, Micronectriella nivalis; assay type: cell-based; settings: microtitre plates, 20° C., 6-8 days
# Procedure: as §1, §2, §3
# [2] = tested on: Pseudocercosporella herpotrichoides; assay: MIC by serial dilution, Example 55, Pseudocercosporella herpotrichoides; assay type: cell-based; settings: Oculimacula yallundae; microtitre plates, 20° C., 6-8 days
# Procedure: as §1, §2, §3
# Plasmopara viticola = assay: Direct protectant activity against vine downy mildew (PVP), Example 53(c); assay type: in vivo; settings: protectant foliar spray, 1000 ppm
# Procedure: The test is a direct protectant one using a foliar spray. The lower surface of leaves of whole vine plants (cv Cabernet Sauvignon) are sprayed with the test compound at a dosage of 1000 ppm using an automated sprayline as described under (a), and after a subsequent period of 24 hours under normal glasshouse conditions the lower surfaces of the leaves are inoculated by spraying with an aqueous suspension containing 2.5×10^4 zoosporangia/ml. The inoculated plants are kept for 24 hours in a high humidity cabinet, 5 days under normal glasshouse conditions and then returned for a further 24 hours to high humidity. Assessment is based on the percentage of leaf area covered by sporulation compared with that on control leaves. The extent of disease control in all the above tests is expressed as a rating compared with either an untreated control or a diluent-sprayed-control, according to the criteria: […]
# Botrytis cinerea = assay: MIC by serial dilution, Example 55, Botrytis cinerea; assay type: cell-based; settings: microtitre plates, 20° C., 6-8 days
# Procedure: as §1, §2, §3
# Cercospora arachidicola = assay: Field pot test with Cercospora arachidicola on peanuts; assay type: in vivo; settings: Mycosphaerella arachidis, topical, 360 h, 500 μg/ml spray, 1000 l/ha, 15 days after treatment, Abbott formula, read-out: % efficacy Cercospora arachidicola
# Procedure: 15 Seeds of peanuts were sown in pots filled with a soil substrate. When the plants have developed 4 true leaves (approx. 12-14 days after seeding) the fungicides and the test compounds were applied using a hand sprayer. The test compounds were applied at a concentration of 500 μg/ml in a […] containing 10% acetone and 0.05% Triton X 155 in water. The total amount of […] corresponded to 1000 l/ha. Six replicates (pots) per treatment were used. 2 days after treatment the pots were exposed to peanut plants in the field on which the fungus, Cercospora arachidicola, had formed sporulating lesions. The assessment was carried out 15 days after treatment by estimating the percentage of infected leaf area. The % efficacy was calculated using the Abbott formula.
# Puccinia arachidis = assay: Field pot test with Puccinia arachidis on peanuts; assay type: in vivo; settings: topical, 456 h, 500 μg/ml spray, 1000 l/ha, 19 days after treatment, Abbott formula, read-out: % efficacy Puccinia arachidis
# Procedure: 15 seeds of peanuts were sown in pots filled with a soil substrate. When the plants have developed 4 true leaves the fungicides and the test compounds were applied using a hand sprayer. The test compounds were applied at a concentration of 500 μg/ml in a […] containing 10% acetone and 0.05% Triton X 155 in water. The total amount of […] corresponded to 1000 l/ha. Six replicates per treatment were used. 2 Days after treatment the pots were exposed to peanut plants in the field on which the fungus, Puccinia arachidis, had formed sporulating pustules on the leaves. The assessment was carried out 19 days after treatment by estimating the percentage of infected leaf area. The % efficacy was calculated using the Abbott formula.
# Leptosphaeria nodorum = assay: Activity against wheat leafspot (LN), Example 53(f); assay type: in vivo; settings: therapeutic foliar spray, 1000 ppm
# Procedure: The test is a direct therapeutic one, using a foliar spray. Leaves of wheat plants (cv Norman), at the single leaf stage, are inoculated by spraying with an aqueous suspension containing 1×10^6 spores/ml. The inoculated plants are kept for 24 hours in a high humidity compartment prior to treatment. The plants are sprayed with a solution of the test compound at a dosage of 1000 ppm using an automated sprayline as described under (a). After drying, the plants are kept for 6-8 days at 22° C. and moderate humidity, followed by assessment. Assessment is based on the density of lesions per leaf compared with that on leaves of control plants. The extent of disease control in all the above tests is expressed as a rating compared with either an untreated control or a diluent-sprayed-control, according to the criteria: […]
SMILES,MIC (Gaeumannomyces graminis),Fungicidal Activity PHI (disease control rating) [1],MIC (Micronectriella nivalis),MIC [2],pest or weed control at 500 µg/mL (Cercospora arachidicola),pest or weed control at 500 µg/mL (Puccinia arachidis),further results
"Clc1ccccc1-c1c(Cl)nc2ncnn2c1Cl [Example 1, 5,7-dichloro-6-(2-chlorophenyl)-1,2,4-triazolo-[1,5a]pyrimidine]",3.13 µg/mL,2 (greater than 80% disease control),1.56 µg/mL,25 µg/mL,–,–,–
CCOc1ccc(-c2c(Cl)nc3ncnn3c2Cl)cc1 [Example 3],0.2 µg/mL,–,0.78 µg/mL,6.25 µg/mL,–,–,–
COc1cccc(-c2c(Cl)nc3ncnn3c2Cl)c1 [Example 4],–,2 (greater than 80% disease control),–,–,–,–,Fungicidal Activity PVP (disease control rating) (Plasmopara viticola): 1 (about 50-80% disease control)
COc1ccccc1-c1c(Cl)nc2ncnn2c1Cl [Example 5],–,2 (greater than 80% disease control),–,–,–,–,Fungicidal Activity PVP (disease control rating) (Plasmopara viticola): 2 (greater than 80% disease control)
O=S(=O)(Cl)c1ccccc1-c1c(Cl)nc2ncnn2c1Cl [Example 6],–,–,–,–,–,–,MIC (Botrytis cinerea): > 100 µg/mL
FC(F)(F)c1cccc(-c2c(Cl)nc3ncnn3c2Cl)c1 [Example 7],–,2 (greater than 80% disease control),–,–,58%,25%,–
FC(F)(F)Oc1ccc(-c2c(Cl)nc3ncnn3c2Cl)cc1 [Example 9],0.1 µg/mL,2 (greater than 80% disease control),0.78 µg/mL,12.5 µg/mL,50%,25%,–
Clc1nc2ncnn2c(Cl)c1-c1ccc2ccccc2c1 [Example 10],–,2 (greater than 80% disease control),–,–,–,–,–
Fc1ccc(-c2c(Cl)nc3ncnn3c2Cl)cc1 [Example 11],0.2 µg/mL,2 (greater than 80% disease control),0.39 µg/mL,3.13 µg/mL,33%,25%,–
Clc1nc2ncnn2c(Cl)c1-c1ccc(Oc2ccccc2)cc1 [Example 12],–,–,–,–,67%,33%,–
Clc1nc2ncnn2c(Cl)c1-c1ccc(-c2ccccc2)cc1 [Example 13],0.39 µg/mL,2 (greater than 80% disease control),6.25 µg/mL,> 100 µg/mL,–,–,–
COc1ccc(-c2c(Cl)nc3ncnn3c2Cl)cc1OC [Example 14],0.78 µg/mL,2 (greater than 80% disease control),6.25 µg/mL,25 µg/mL,–,–,–
Clc1nc2ncnn2c(Cl)c1-c1ccc(OCc2ccccc2)cc1 [Example 15],–,–,–,–,–,–,Fungicidal Activity LN (disease control rating) (Leptosphaeria nodorum): 1 (about 50-80% disease control)
Fc1ccccc1-c1c(Cl)nc2ncnn2c1Cl [Example 16],–,2 (greater than 80% disease control),–,–,50%,42%,–
Fc1cccc(-c2c(Cl)nc3ncnn3c2Cl)c1 [Example 17],0.78 µg/mL,2 (greater than 80% disease control),12.5 µg/mL,25 µg/mL,–,–,–
Clc1nc2ncnn2c(Cl)c1-c1ccccc1Br [Example 18],–,2 (greater than 80% disease control),–,–,–,–,–
